Legend:
[1] = tested on: diastolic blood pressure; assay: hypotensive activity in anesthetized rats; assay type: in vivo, Male Wistar strain rats; settings: intravenous, minimal dose for a decrease of about 10 mm. in diastolic blood pressure; for minimal effective dose: Rattus norvegicus
Experimental: This procedure is a modification of the technique described by Pike et al., Prostaglandins, Nobel Symposium 2, Stockholm, June, 1966; p. 165.
Male Wistar strain rats (Royal Hart Farms) averaging approximately 250 grams in weight were fastened to rat boards in a supine position by means of canvas vests and limb ties. The femoral area was infiltrated subcutaneously with lidocaine and the iliac artery and vein were exposed and cannulated. Arterial blood pressure (systolic/diastolic) was recorded using a Statham P23 Db pressure, the animals were anethetized before use with pentobarbital, 30 mg./kg. of body weight intravenously, and also were given hexamethoxium bitartrate, 2 mg/kg. of body weight intravenously. The test compounds were prepared by ultrasonic dispersion in a saline-Tween 80 vehicle. A constant intravenous dose volume of 0.5 ml. was administered and test doses ranged from 0.1 to 10.0 mg./kg. of body weight. Increasing or decreasing doses were selected depending on the dose response obtained. In Table 2B below are set forth the minimal doses required to produce a decrease of about 10 mm. in diastolic blood pressure for typical compounds of the present invention.

[2] = tested on: indomethacin ulcers of the stomach; assay: protection against the ulcerogenic properties of indomethacin (ulcer score); assay type: in vivo, rats; settings: 2.5 or lower = active
Experimental: The compounds of this invention provide protection against the ulcerogenic properties of indomethacin. This assay was carried out in the following manner.
Rats were starved for 48 hours (water was given ad libitum). Indomethacin (20 mg./kg. of body weight) was administered by the subutaneous route and one-half the dose of the test compound was administered by gavage at the same time. After three hours, the second half of the test compound was administered also by Gavage. Five hours after the administration of indomethacin the animals were decapitated and the stomachs removed. The stomachs were washed with distilled water, blotted on gauze, cut along the larger curvature, and the contents rinsed with distilled water. The stomachs were spread out, pinned on a cork and visualized under magnifying glass for ulcers. The criteria for scoring of ulcers was as previously reported. [Abdel-Galil et al. Brit. J. Pharmac. Chemotherapy 33:1-14 (1968)].
1 Petechial hemorrhage or pin point ulcer
3 Many ulcers, a few large
4 Many ulcers, mainly large
Control animals treated with indomethacin but not test compound consistently give scores of about 3.0-3.5. Control animals treated with neither indomethacin nor test compound give scores of about 0.5-0.8. Compounds producing a score of 2.5 or lower are considered to be active.

[3] = tested on: bronchospasms elicited by 5-hydroxytryptamine; assay: bronchodilator activity, Konzett procedure, 5-hydroxytryptamine; assay type: in vivo, guinea pigs; settings: Cavia porcellus; three logarithmic cumulative intravenous doses; spasmogen 5-hydroxytryptamine; read-out: Bronchodilator Activity (Konzett Assays) ED50, 5-hydroxytryptamine
Experimental: (§1) Bronchodilator activity was determined in guinea pigs against bronchospasms elicited by intravenous injections of 5-hydroxytryptamine, histamine or acetylcholine by the Konzett procedure. [See J. Lulling, P. Lievens, F. El Sayed and J. Prignot, Arzeimittel-Forschung, 18 995 (1968).]
(§2) In the table which follows bronchodilator activity for representative compounds of this invention against one or more of the three spasmogenic agents is expressed as an ED50 determined from the results obtained with three logarithemic cumulative intravenous doses.

[4] = tested on: gastric acid secretion; assay: gastric acid secretion inhibition, "Shay rat" procedure; assay type: in vivo, rats (male, CFE strain); settings: intraduodenal dose 100 mg./kg. of body weight; 3 hours; 20% or more = active
Experimental: The novel compounds of the present invention are also effective inhibitors of gastric acid secretion and of ulcer development in experimental animals, and thus are potentially valuable as agents for the control of gastric acid secretion and of gastric erosion and as anti-ulcer agents. Gastric acid secretion inhibitory action is usually measured by the "Shay rat" procedure ^(1,2) with some modifications as follows.
The rats (male, CFE strain) were starved for 48 hours (water was given ad libitum) to permit evacuation of stomach contents. On the morning of the experiment, under ether anesthesia, the abdominal region was shaved and a midline incision (1-1 1/2 in.) was made with a scapel. With the help of a closed curved hemostate the duodenum was picked up. […]
The test compound or the vehicle, usually […], were injected into the duodenum as close as possible to the first ligature. […] The supernatant was collected, volume measured and recorded, 2 drops of a phenolphthalein indicator (1% in 95% ethanol) were added and the solution was titrated with 0.02N NaOH (or with 0.04N NaOH when large volumes of stomach contents were encountered) to pH 8.4 (because of usual coloring of the stomach contents, phenolphthalein was only used to permit visual indication that the end point was near) and the amount of acid present was calculated. […]

[5] = tested on: bronchospasms elicited by acetylcholine; assay: bronchodilator activity, Konzett procedure, acetylcholine; assay type: in vivo, guinea pigs; settings: Cavia porcellus; three logarithmic cumulative intravenous doses; column head printed choline; read-out: Bronchodilator Activity (Konzett Assays) ED50, choline
Experimental: as §1, §2

[6] = tested on: bronchospasms elicited by histamine; assay: bronchodilator activity, Konzett procedure, histamine; assay type: in vivo, guinea pigs; settings: Cavia porcellus; three logarithmic cumulative intravenous doses; spasmogen histamine; read-out: Bronchodilator Activity (Konzett Assays) ED50, histamine
Experimental: as §1, §2

[7] = total oral dose 25 mg./kg. of body weight, control score 3.2, scale 0 (normal stomach) to 4 (many ulcers, mainly large)

Structure (SMILES): CCCCC[C@H](O)/C=C/[C@H]1CCC(=O)[C@@H]1CCCCOCC(=O)OCC (relative stereo) [Ethyl 3-oxa-9-oxo-15-hydroxy-13-trans-prostenoate]
- minimal effective dose [1]: 0.2 mg/kg

Structure (SMILES): CCCCC(CC)C(O)/C=C/[C@H]1CCC(=O)[C@@H]1CCCCCCC(=O)O (stereo partly drawn) [9-oxo-15-hydroxy-16-ethyl-13-trans-prostenoic acid]
- Score, Treated [2, 7]: 1.7

Structure (SMILES): CCCCCC(O)/C=C\[C@H]1CCC(=O)[C@@H]1CCCCCCC(=O)O (relative stereo) [9-oxo-15-hydroxy-13-cis-prostenoic acid, 15-hydroxy-9-oxo-13-cis-prostenoic acid]
- Score, Treated ([2]; total oral dose 100 mg./kg. of body weight, control score 3.0, scale 0-4): 1.3
- ED50 [3]: 0.000106 mg/kg

Structure (SMILES): CCCCCC(O)/C=C/[C@H]1CCC(=O)[C@@H]1CCCCC(C)(C)CC(=O)O (relative stereo) [9-oxo-15-hydroxy-3,3-dimethyl-13-trans-prostenoic acid]
- Percent Inhibition (gastric acid secretion) [4]: 51%

Structure (SMILES): CCCCC[C@H](O)/C=C/[C@H]1CCC(=O)[C@@H]1CCCCSCC(=O)O (relative stereo) [9-oxo-3-thia-15-hydroxy-13-trans-prostenoic acid]
- minimal effective dose [1]: 2 mg/kg

Structure (SMILES): CCCCCC(O)/C=C/C1CCC(=O)C1(C)CCCCCCC(=O)O (stereo not drawn) [9-oxo-8β-methyl-15-hydroxy-13-trans-prostenoic acid]
- Score, Treated ([2]; total oral dose 12.5 mg./kg. of body weight, control score 3.0, scale 0-4): 2.0
- Minimal effective hypotensive dose [1]: 2 mg./kg. of body wt.

Structure (SMILES): CCCC#CC(O)CC[C@H]1CCC(=O)[C@@H]1CCCCCCC(=O)O (stereo partly shown) [9-oxo-15-hydroxy-16-prostynoic acid]
- ED50 [5]: 0.00032 mg/kg

Structure (SMILES): CCCCC[C@H](O)/C=C/[C@H]1CCC(=O)[C@@H]1CCCCCC(C)C(=O)O (stereo partly drawn) [2-methyl-9-oxo-15-hydroxy-13-trans-prostenoic acid]
- minimal effective dose [1]: 2 mg/kg

Structure (SMILES): CCCCC[C@@H](O)/C=C/[C@H]1CCCC(=O)[C@@H]1CCCCCCC(=O)O (relative stereo) [9-oxo-10a-homo-15-epi-hydroxy-13-trans-prostenoic acid]
- minimal effective dose [1]: 2 mg/kg

Structure (SMILES): CCCCC[C@H](O)/C=C/[C@H]1CCCC(=O)[C@@H]1CCCCCCC(=O)O (relative stereo) [9-oxo-10a-homo-15-hydroxy-13-trans-prostenoic acid]
- minimal effective dose [1]: 2 mg/kg

Structure (SMILES): CCCCC[C@H](O)/C=C/[C@H]1CCC(=O)[C@@H]1CCCCCC(C(=O)O)c1ccccc1 (stereo partly drawn) [2-phenyl-9-oxo-15-hydroxy-13-trans-prostenoic acid]
- minimal effective dose [1]: 8 mg/kg

Structure (SMILES): CCCCC[C@@H](O)/C=C/[C@H]1CCC(=O)[C@@H]1CCCCOCC(=O)OCC (relative stereo) [Ethyl 3-oxa-9-oxo-15-epi-hydroxy-13-trans-prostenoate]
- minimal effective dose [1]: 0.2 mg/kg

Structure (SMILES): CC/C=C\CC(O)/C=C/C1CCC(=O)C1C/C=C\CCCC(=O)O (stereo not drawn) [9-oxo-15-hydroxy-5-cis,13-trans,17-cis-prostatrienoic acid]
- Minimal effective hypotensive dose [1]: < 2 mg./kg. of body wt.

Structure (SMILES): CCCCC[C@@H](O)/C=C/[C@H]1CCC(=O)[C@@H]1CCCCCC(C)C(=O)O (stereo partly drawn) [2-methyl-9-oxo-15-epi-hydroxy-13-trans-prostenoic aid]
- minimal effective dose [1]: 2 mg/kg

Structure (SMILES): CCCCC[C@@H](O)/C=C/[C@H]1CCC(=O)[C@@H]1CCCCSCC(=O)O (relative stereo) [9-oxo-3-thia-15-epi-hydroxy-13-trans-prostenoic acid]
- Score, Treated [2, 7]: 2.3
- minimal effective dose [1]: 2 mg/kg

Structure (SMILES): CCCCC[C@H](O)/C=C/[C@H]1CCC(=O)[C@@H]1CCCCOCC(=O)O (relative stereo) [3-oxa-9-oxo-15-hydroxy-13-trans-prostenoic acid]
- minimal effective dose [1]: < 2 mg/kg

Structure (SMILES): CCCCC[C@H](O)/C=C/[C@H]1CCC(=O)[C@@H]1CCCCCC(CC)C(=O)O (stereo partly drawn) [9-oxo-15-hydroxy-2-ethyl-13-trans-prostenoic acid]
- ED50 [6]: 0.000145 mg/kg
- ED50 [5]: 0.000533 mg/kg
- Score, Treated ([2]; total oral dose 50 mg./kg. of body weight, control score 3.0, scale 0-4): 2.2
- ED50 [3]: 0.000329 mg/kg
- minimal effective dose [1]: < 2 mg/kg

Structure (SMILES): CC/C=C\CC(C)(O)/C=C/C1CCC(=O)C1C/C=C\CCCC(=O)O (stereo not drawn) [9-oxo-15-hydroxy-15-methyl-5-cis,13-trans,17-cis-prostatrienoic acid]
- Minimal effective hypotensive dose [1]: < 2 mg./kg. of body wt.
